Values quoted from earlier work in patent US7932083B2, “DNA participating in hydroxylation of macrolide compound” (priority 2003, dated 2011).

Details: statement of prior art (WO02/060890)

For `CCC(O)C(C)C1OC1CC(C)(O)/C=C/C=C(\C)C1OC(=O)CC(O)CCC(C)(O)C(OC(C)=O)/C=C/C1C` (stereo not shown) [11107D], the antitumor activity is given as “excellent antitumor activity”.
